From ChEMBL document CHEMBL6109155, “Discovery of Phenylacylpiperidine as Novel sEH Inhibitors through Scaffold Hopping of Natural Stilbene” (J Med Chem, 2025)
pIC50: −log10 of the molar value. Active and inactive are the calls of the source. No cut-off for these calls is given here.

How the values were obtained:
[1] = AUC (0 to 24 hrs) in plasma of C57BL/6J mouse at 20 mg/kg, po measured for 24 hrs; format: ADME, organism-based
[2] = system: Mus musculus; assay: Anti-inflammatory activity in BALB/c mouse model of carrageenan-induced paw edema assessed as inhibition of paw swelling at 20 mg/kg, po measured after 6 hrs relative to control; format: functional
[3] = system: Rattus norvegicus; assay: Anti-inflammatory activity in Sprague-Dawley rat model of CFA-induced rheumatoid arthritis assessed as improvement in body weight at 10 mg/kg, po administered daily measured for 19 days; format: functional, organism-based; settings: time 19.0 day
[4] = system: RAW264.7; assay: Anti-inflammatory activity in LPS-indeced mouse RAW264.7 cells assessed as reduction in IL-1beta level at 10 uM preincubated for 1 hr followed by LPS addition measured after 24 hrs by ELISA; format: functional, cell-based
[5] = system: Mus musculus; assay: Anti-inflammatory activity in BALB/c mouse model of carrageenan-induced paw edema assessed as decrease in plasma 11,12-DHET levels at 10 mg/kg, po measured after 6 hrs relative to control; format: functional; design: scale not given: the % may be the effect or the level left
[6] = Cmax in brain of C57BL/6J mouse at 20 mg/kg, po measured for 24 hrs; format: ADME, organism-based
[7] = biological target: T1, Cytochrome P450 1A2 (Homo sapiens, UniProt P05177); assay: Inhibition of CYP1A2 in human liver microsomes preincubated for 10 mins followed by NADPH addition measured after 3.5 mins by LC-MS/MS analysis; format: ADME, Microsome
T1 sequence (P05177 whole entry): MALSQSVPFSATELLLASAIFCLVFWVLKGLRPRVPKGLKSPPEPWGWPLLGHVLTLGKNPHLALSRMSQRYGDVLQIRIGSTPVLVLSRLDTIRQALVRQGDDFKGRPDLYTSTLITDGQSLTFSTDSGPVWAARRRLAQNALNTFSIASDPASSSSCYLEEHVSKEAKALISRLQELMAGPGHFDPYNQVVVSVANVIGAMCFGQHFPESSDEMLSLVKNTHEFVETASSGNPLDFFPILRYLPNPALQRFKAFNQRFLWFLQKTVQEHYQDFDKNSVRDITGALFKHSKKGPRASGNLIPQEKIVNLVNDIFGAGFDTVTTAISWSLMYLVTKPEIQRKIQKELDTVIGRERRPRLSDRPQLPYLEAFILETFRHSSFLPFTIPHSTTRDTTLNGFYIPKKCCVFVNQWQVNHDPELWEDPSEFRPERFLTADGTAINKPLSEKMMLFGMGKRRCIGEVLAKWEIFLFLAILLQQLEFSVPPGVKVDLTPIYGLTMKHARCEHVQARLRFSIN

[8] = system: Rattus norvegicus; assay: Anti-inflammatory activity in Sprague-Dawley rat model of CFA-induced rheumatoid arthritis assessed as increase in ratio of plasma 8,9-EET to DHET levels at 10 mg/kg, po administered daily measured after 19 days relative to control; format: functional; settings: time 19 day
[9] = In vivo inhibition of liver sEH enzyme activity in Sprague-Dawley rat model of CFA-induced rheumatoid arthritis at 10 mg/kg, po administered daily measured after 19 days relative to control; format: functional; settings: 456 h, time 19 day
[10] = system: Mus musculus; assay: Anti-inflammatory activity in BALB/c mouse model of carrageenan-induced paw edema assessed as increase in ratio of 8,9-EET to DHET plasma levels at 10 mg/kg, po measured after 6 hrs relative to control; format: functional
[11] = AUC (0 to 24 hrs) in Sprague-Dawley rat at 20 mg/kg, po measured for 24 hrs; format: ADME, organism-based; settings: in vivo
[12] = system: Rattus norvegicus; assay: Anti-inflammatory activity in Sprague-Dawley rat model of CFA-induced rheumatoid arthritis assessed as BV/TV value at 10 mg/kg, po administered daily measured after 19 days by micro-CT analysis (reference value: 40.047 %); format: functional; settings: time 19 day
[13] = system: Mus musculus; assay: Anti-inflammatory activity in CD-1 mouse model of cerulein-induced acute pancreatitis assessed as increase in ratio of plasma 11,12-EET/DHET level at 10 mg/kg, ip drug administered at 30 mins and 2.5 hrs post-first cerulein injection and measured after 6 hrs post-first cerulein injection (reference value: 69.8 to 77.3 %); format: functional; settings: time 3.5-5.5 hrs
[14] = system: Mus musculus; assay: Anti-inflammatory activity in BALB/c mouse model of carrageenan-induced paw edema assessed as decrease in plasma 8,9-DHET levels at 10 mg/kg, po measured after 6 hrs relative to control; format: functional; design: scale not given: the % may be the effect or the level left
[15] = system: Mus musculus; assay: Anti-inflammatory activity in BALB/c mouse model of carrageenan-induced paw edema assessed as increase in plasma 14,15-EET levels at 10 mg/kg, po measured after 6 hrs relative to control; format: functional
[16] = system: Rattus norvegicus; assay: Anti-inflammatory activity in Sprague-Dawley rat model of CFA-induced rheumatoid arthritis assessed as increase in ratio of plasma 11,12-EET to DHET levels at 10 mg/kg, po administered daily measured after 19 days relative to control; format: functional; settings: time 19 day
[17] = system: Mus musculus; assay: Effect on ratio of 5,6-EET to DHET plasma levels in BALB/c mouse model of carrageenan-induced paw edema at 10 mg/kg, po measured after 6 hrs; format: functional, organism-based
[18] = Ratio of Cmax in kidney to plasma in C57BL/6J mouse at 20 mg/kg, po measured for 24 hrs; format: ADME, organism-based; settings: kidney and plasma
[19] = AUC (0 to 24 hrs) in Sprague-Dawley rat at 5 mg/kg, iv measured for 24 hrs; format: ADME, organism-based; settings: in vivo
[20] = system: Mus musculus; assay: Analgesic effect in BALB/c mouse model of acetic acid-induced writhing assessed as reduction in number of writhing episodes at 20 mg/kg, po pretreated for 1 hr followed by acetic acid treatment and measured after 5 to 35 mins relative to control; format: functional; design: scale not given: the % may be the effect or the level left; settings: time 65-95 min
[21] = system: Rattus norvegicus; assay: Anti-inflammatory activity in Sprague-Dawley rat model of CFA-induced rheumatoid arthritis assessed as decrease in swelling degree of right paw at 10 mg/kg, po administered daily measured after 4 days; format: functional, organism-based; settings: time 4.0 day
[22] = system: Rattus norvegicus; assay: Anti-inflammatory activity in Sprague-Dawley rat model of CFA-induced rheumatoid arthritis assessed as smooth cartilage surface at 10 mg/kg, po administered daily measured after 19 days by H and E staining based analysis; format: functional, organism-based; settings: time 19.0 day
[23] = AUC (0 to 24 hrs) in liver of C57BL/6J mouse at 20 mg/kg, po measured for 24 hrs; format: ADME, organism-based
[24] = Ratio of Cmax in liver to plasma in C57BL/6J mouse at 20 mg/kg, po measured for 24 hrs; format: ADME, organism-based; settings: liver and plasma
[25] = system: Rattus norvegicus; assay: Anti-inflammatory activity in Sprague-Dawley rat model of CFA-induced rheumatoid arthritis assessed as increase in ratio of plasma 14,15-EET to DHET levels at 10 mg/kg, po administered daily measured after 19 days relative to control; format: functional; settings: time 19 day
[26] = system: Mus musculus; assay: Anti-inflammatory activity in BALB/c mouse model of carrageenan-induced paw edema assessed as increase in plasma 8,9-EET levels at 10 mg/kg, po measured after 6 hrs relative to control; format: functional
[27] = system: Mus musculus; assay: Anti-inflammatory activity in CD-1 mouse model of cerulein-induced acute pancreatitis assessed as decrease in pancreatic edema at 10 mg/kg, ip drug administered at 30 mins and 2.5 hrs post-first cerulein injection and measured after 6 hrs post-first cerulein injection by H and E staining based analysis; format: functional, organism-based; settings: time 3.5-5.5 hrs
[28] = Cmax in liver of C57BL/6J mouse at 20 mg/kg, po measured for 24 hrs; format: ADME, organism-based
[29] = system: Rattus norvegicus; assay: Anti-inflammatory activity in Sprague-Dawley rat model of CFA-induced rheumatoid arthritis assessed as TV value at 10 mg/kg, po administered daily measured after 19 days by micro-CT analysis (reference value: 92.617 mm3); format: functional; settings: time 19 day

COc1cc(CC(=O)N2CCC(NC(=O)NCc3ccc(OC(F)(F)F)cc3)CC2)cc(OC)c1
AUC(0-t) at 24 h [1]: 532 ng·h/mL
inhibition in vivo at 20 mg/kg [2]: 38.1%
Activity [3]: Active
Activity [4]: Active
Activity [5]: 55.1%
Cmax [6]: 27.9 ng/g
pIC50 [7]: < 4.30
Activity [8]: 203%
inhibition in vivo at 10 mg/kg [9]: 24.7%
Activity [10]: 355%
AUC(0-t) at 24 h [11]: 725 ng·h/mL
Activity [12]: 62.73%
Activity [13]: 552%
Activity [14]: 70.3%
Activity [15]: 128%
Activity [16]: 111%
Activity [17]: No effect
Kp at 24 h [18]: 9.43
AUC(0-t) at 24 h [19]: 2190 ng·h/mL
Activity [20]: 42%
Activity [21]: Active
Activity [22]: Active
AUC(0-t) at 24 h [23]: 27100 ng·h/mL
Kp at 24 h [24]: 6.71
Activity [25]: 463%
Activity [26]: 28.7%
Activity [27]: Active
Cmax [28]: 3230 ng/g
Activity [29]: 57.762 mm3
